Assay results reported in ChEMBL document CHEMBL3885861, “Open TG-GATES”.

Species: Rattus norvegicus
Assay: Open TG-GATES - Regimen: Single
Type: toxicity, organism-based, Sprague-Dawley
Design: regimen Single, gender Male, age 6 weeks
Conditions: in vivo, iv, route intravenous injection; for LIVER: tissue Liver; for A/G / ALP / ALT / AST / BUN / CRE / Ca / Cl / DBIL / GLC / IP / K / LDH / Na / PL / RALB / TBIL / TC / TG / TP / gamma-GTP: tissue Plasma; for APTT / Bas / Eos / Fbg / Hb / Ht / Lym / MCH / MCHC / MCV / Mono / Neu / PT / Plat / RBC / Ret / WBC: tissue Blood; for KIDNEY_L / KIDNEY_R / KIDNEY_TOTAL: tissue Kidney
[1] = 2 mg/kg, 3 h, dose level Middle
[2] = 2 mg/kg, 6 h, dose level Middle

C[C@@H]1[C@H](O)[C@@H](C)/C=C/C=C/C=C/C=C/C=C/C=C/C=C/[C@H](O[C@@H]2O[C@H](C)[C@@H](O)[C@H](N)[C@@H]2O)C[C@@H]2O[C@](O)(C[C@@H](O)C[C@@H](O)[C@H](O)CC[C@@H](O)C[C@@H](O)CC(=O)O[C@H]1C)C[C@H](O)[C@H]2C(=O)O [AMPHOTERICIN B]
LIVER (1 mg/kg, 9 h, dose level Low): 8.4 g | A/G (1 mg/kg, 9 h, dose level Low): 0.8 | ALP (1 mg/kg, 9 h, dose level Low): 1344.2 IU/L | ALT (1 mg/kg, 9 h, dose level Low): 33 IU/L | AST (1 mg/kg, 9 h, dose level Low): 85 IU/L | BUN (1 mg/kg, 9 h, dose level Low): 16.6 mg/dL | CRE (1 mg/kg, 9 h, dose level Low): 0.1 mg/dL | Ca (1 mg/kg, 9 h, dose level Low): 10.6 mg/dL | Cl (1 mg/kg, 9 h, dose level Low): 106.6 meq/L | DBIL (1 mg/kg, 9 h, dose level Low): 0.012 mg/dL | GLC (1 mg/kg, 9 h, dose level Low): 161.4 mg/dL | IP (1 mg/kg, 9 h, dose level Low): 10.2 mg/dL | K (1 mg/kg, 9 h, dose level Low): 3.8 meq/L | LDH (1 mg/kg, 9 h, dose level Low): 53.6 IU/L | Na (1 mg/kg, 9 h, dose level Low): 142.8 meq/L | PL (1 mg/kg, 9 h, dose level Low): 122.8 mg/dL | RALB (1 mg/kg, 9 h, dose level Low): 2.5 g/dL | TBIL (1 mg/kg, 9 h, dose level Low): 0.07 mg/dL | TC (1 mg/kg, 9 h, dose level Low): 75.8 mg/dL | TG (1 mg/kg, 9 h, dose level Low): 31.4 mg/dL | TP (1 mg/kg, 9 h, dose level Low): 5.6 g/dL | gamma-GTP (1 mg/kg, 9 h, dose level Low): 1.6 IU/L | TERMINAL_BW (1 mg/kg, 24 h, dose level Low): 224.5 g | APTT (1 mg/kg, 24 h, dose level Low): 14.8 s | Bas (1 mg/kg, 24 h, dose level Low): 0% | Eos (1 mg/kg, 24 h, dose level Low): 1% | Fbg (1 mg/kg, 24 h, dose level Low): 286.6 mg/dL | Hb (1 mg/kg, 24 h, dose level Low): 13.3 g/dL | Ht (1 mg/kg, 24 h, dose level Low): 39.7% | Lym (1 mg/kg, 24 h, dose level Low): 79.8% | MCH (1 mg/kg, 24 h, dose level Low): 21.2 pg | MCHC (1 mg/kg, 24 h, dose level Low): 33.6% | MCV (1 mg/kg, 24 h, dose level Low): 63.1 fL | Mono (1 mg/kg, 24 h, dose level Low): 2.2% | Neu (1 mg/kg, 24 h, dose level Low): 16.6% | PT (1 mg/kg, 24 h, dose level Low): 12 s | Plat (1 mg/kg, 24 h, dose level Low): 135.9 x10_4/uL | RBC (1 mg/kg, 24 h, dose level Low): 628.6 x10_4/ul | Ret (1 mg/kg, 24 h, dose level Low): 7.1% | WBC (1 mg/kg, 24 h, dose level Low): 100.8 x10_2/uL | KIDNEY_L (1 mg/kg, 24 h, dose level Low): 1 g | KIDNEY_R (1 mg/kg, 24 h, dose level Low): 1 g | KIDNEY_TOTAL (1 mg/kg, 24 h, dose level Low): 1.9 g | LIVER (1 mg/kg, 24 h, dose level Low): 10.5 g | A/G (1 mg/kg, 24 h, dose level Low): 0.8 | ALP (1 mg/kg, 24 h, dose level Low): 1710.6 IU/L | ALT (1 mg/kg, 24 h, dose level Low): 39.8 IU/L | AST (1 mg/kg, 24 h, dose level Low): 67.8 IU/L | BUN (1 mg/kg, 24 h, dose level Low): 17.2 mg/dL | CRE (1 mg/kg, 24 h, dose level Low): 0.2 mg/dL | Ca (1 mg/kg, 24 h, dose level Low): 11 mg/dL | Cl (1 mg/kg, 24 h, dose level Low): 105.6 meq/L | DBIL (1 mg/kg, 24 h, dose level Low): 0.02 mg/dL | GLC (1 mg/kg, 24 h, dose level Low): 161.8 mg/dL | IP (1 mg/kg, 24 h, dose level Low): 8.2 mg/dL | K (1 mg/kg, 24 h, dose level Low): 3.9 meq/L | LDH (1 mg/kg, 24 h, dose level Low): 50.4 IU/L | Na (1 mg/kg, 24 h, dose level Low): 144 meq/L | PL (1 mg/kg, 24 h, dose level Low): 143.8 mg/dL | RALB (1 mg/kg, 24 h, dose level Low): 2.7 g/dL | TBIL (1 mg/kg, 24 h, dose level Low): 0.056 mg/dL | TC (1 mg/kg, 24 h, dose level Low): 79.4 mg/dL | TG (1 mg/kg, 24 h, dose level Low): 92.2 mg/dL | TP (1 mg/kg, 24 h, dose level Low): 5.8 g/dL | gamma-GTP (1 mg/kg, 24 h, dose level Low): 1.8 IU/L | TERMINAL_BW [1]: 220.8 g | APTT [1]: 17.1 s | Bas [1]: 0% | Eos [1]: 1% | Fbg [1]: 283 mg/dL | Hb [1]: 13.7 g/dL | Ht [1]: 38.4% | Lym [1]: 69% | MCH [1]: 20.9 pg | MCHC [1]: 35.8% | MCV [1]: 58.4 fL | Mono [1]: 4% | Neu [1]: 25% | PT [1]: 12.6 s | Plat [1]: 117.6 x10_4/uL | RBC [1]: 657 x10_4/ul | Ret [1]: 6.8% | WBC [1]: 144 x10_2/uL | KIDNEY_L [1]: 1 g | KIDNEY_R [1]: 0.9 g | KIDNEY_TOTAL [1]: 1.9 g | LIVER [1]: 10.3 g | A/G [1]: 0.8 | ALP [1]: 1456 IU/L | ALT [1]: 41 IU/L | AST [1]: 72 IU/L | BUN [1]: 31 mg/dL | CRE [1]: 0.2 mg/dL | Ca [1]: 11 mg/dL | Cl [1]: 106 meq/L | DBIL [1]: 0.01 mg/dL | GLC [1]: 186 mg/dL | IP [1]: 10.5 mg/dL | K [1]: 4.4 meq/L | LDH [1]: 71 IU/L | Na [1]: 141 meq/L | PL [1]: 134 mg/dL | RALB [1]: 2.5 g/dL | TBIL [1]: 0.07 mg/dL | TC [1]: 78 mg/dL | TG [1]: 41 mg/dL | TP [1]: 5.5 g/dL | gamma-GTP [1]: 2 IU/L | TERMINAL_BW [2]: 211.7 g | APTT [2]: 15.8 s | Bas [2]: 0.2% | Eos [2]: 0% | Fbg [2]: 236 mg/dL | Hb [2]: 14.3 g/dL | Ht [2]: 41.1% | Lym [2]: 54.8% | MCH [2]: 21.2 pg | MCHC [2]: 35% | MCV [2]: 60.7 fL | Mono [2]: 3.2% | Neu [2]: 40.8% | PT [2]: 12.8 s | Plat [2]: 138.8 x10_4/uL | RBC [2]: 676.8 x10_4/ul | Ret [2]: 8.1% | WBC [2]: 102.6 x10_2/uL | KIDNEY_L [2]: 1 g | KIDNEY_R [2]: 1 g | KIDNEY_TOTAL [2]: 2.1 g | LIVER [2]: 9.1 g | A/G [2]: 0.9 | ALP [2]: 1566.8 IU/L | ALT [2]: 197 IU/L | AST [2]: 407 IU/L | BUN [2]: 43.8 mg/dL | CRE [2]: 0.4 mg/dL | Ca [2]: 11 mg/dL | Cl [2]: 107 meq/L | DBIL [2]: 0.0175 mg/dL | GLC [2]: 196.8 mg/dL
